In article PMC6920923, “Improving In Vivo Brain Delivery of Monoclonal Antibody Using Novel Cyclic Peptides” (Pharmaceutics, 2019):
“Also recorded” adds a separate entry of the source. Values belong to the molecule of their own block, whether it stands above or below them. Positions of bridges follow the written chain, without caps; N, C: chain ends. Residues, ends and D or L forms follow the SMILES beside them.

Experiments:
EC1 domain of E-cadherin [1] = target: T1, EC1 domain of E-cadherin (Homo sapiens, UniProt P12830); test: SPR binding to immobilized EC1 domain of E-cadherin; settings: authors' separate study; for Kd: EC1 immobilized on streptavidin chip via Streptag I at N-terminus
T1 sequence (P12830 155-262 limits assumed): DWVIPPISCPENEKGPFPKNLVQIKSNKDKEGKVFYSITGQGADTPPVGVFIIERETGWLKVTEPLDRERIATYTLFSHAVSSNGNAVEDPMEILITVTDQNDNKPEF
Text: However, it was not yet clear whether the difference in activity was due to additive activity by the two sequences (Thr-Pro-Pro-Val and Ser-His-Ala-Val) or domination by only one sequence. As mentioned above, there was a trend that cyclic ADTHAV was slightly better than ADTC5. Because it is difficult to differentiate the activities of cyclic ADTHAV and ADTC5 in vivo, we compared their binding properties to the EC1 domain of E-cadherin using SPR experiments in a separate study. After optimizing the SPR running conditions, the EC1 protein was immobilized on the streptavidin chip via the Streptag I sequence on the N-terminus of the EC1 domain followed by injection of various peptide concentrations. […] In the future, the mechanism of cyclic ADTHAV binding to the EC1-domains of E-cadherin and VE-cadherin will be evaluated.

brains of C57BL/6 mice = test: In vivo brain delivery of IRdye800CW-IgG mAb (NIRF quantification); settings: n = 3; for amount of IgG mAb in the brain (brain deposition): IgG mAb 21.6 nmol/kg with or without 13 µmol/kg peptide, i.v. tail vein, 15 min circulation, PBS/0.5% Tween-20 perfusion, NIRF (Odyssey CLx) of brain homogenate, mean ± SEM; for brain delivery of IgG mAb compared to control (IgG mAb alone), in words: IgG mAb 21.6 nmol/kg, peptide 13 µmol/kg i.v., ANOVA Student–Newman–Keuls
Description: The activity of each peptide in enhancing BBB penetration was evaluated by delivering IRdye800CW donkey anti-goat IgG mAb in C57BL/6 mice; the amounts of mAb in the brain were determined using near infrared fluorescence (NIRF) imaging. Each group contains 3 mice per group (n = 3) with a mixture of male and female mice, selected randomly for each arm of the study. The injection solution was prepared by adding 600 µL PBS into 0.5 mg lyophilized IgG mAb; then, approximately 1.5 mg lyophilized peptide was added into the mixture yielding the injectable formulation. A 100 µL solution of a mixture containing IgG mAb (21.6 nmol/kg) along with 13 µmol/kg peptide was administered via tail vein. As a control, 100 µL of IgG mAb alone was administered via i.v. route. After the delivered molecules had been circulating for 15 min, the mice were sacrificed; then, a mixture of PBS with 0.5% Tween-20 was administered for cardiac perfusion to remove the blood and delivered molecules from the brain microvessels. The brain and other organs such as lung, heart, spleen, liver, and kidney were harvested and rinsed with PBS. The isolated organs were scanned with Odyssey® CLx for mAb quantification.
The brain deposition of IgG mAb was also quantified by NIRF imaging in brain homogenates. The isolated brains were mechanically homogenized in 2.0 mL of PBS. To make the standard solutions, IRDye800CW IgG mAb stock solution (70 µg/mL) was prepared; it was then diluted with various amounts of PBS to make six different mAb concentrations. To generate a calibration curve, the brain homogenate (200 µL) was aliquoted out to a 96-well plate. A total of 10 µL of each concentration of IgG mAb was added to three different wells of blank brain homogenates. The standard spiked homogenates were at a range of 10–200 ng/mL IgG mAb in brain homogenate. The wells were scanned using the Odyssey® CLx scanner, and the signal intensities vs. concentrations of mAb per gram of brain were used to generate a calibration curve.
ANOVA with Student–Newman–Keuls was used to compare the data for determining statistical significance for IgG mAb deposition in the brains. A p-value of less than 0.05 was used as a criterion for a significant difference in data comparison. Numeric results are presented as: mean ± SEM.
A calibration curve was generated to determine the amount of IgG mAb in the brain by spiking blank brain homogenates with a concentration range from 10 to 200 ng/mL, and good linearity with R^2 ≥ 0.98 was achieved. […] The average amounts of IgG mAb in the brains of HAV6-treated and control animals were 3.4 ± 0.4 and 4.0 ± 0.5 pmol/g brain, respectively. In contrast, the average amounts of mAb in the brains of cyclic HAVN1- and HAVN2-treated mice were 8.6 ± 0.5 and 8.8 ± 0.6 pmol/g brain, respectively. The BBB modulatory activities of ADTC5, linear ADTHAV, and cyclic ADTHAV were also compared to the control (Figure 5). […] The average brain deposition of IgG mAb were 11.8 ± 0.5, 15.7 ± 0.8, and 13.3 ± 0.7 pmol/g brain for linear ADTHAV, cyclic ADTHAV, and ADTC5, respectively.

MDCK cell monolayers = settings: cited from earlier work
Description: Previously, cyclic cHAVc1 (cyclo(1,8)Ac-CSHAVASC-NH2) and cHAVc3 (cyclo(1,6)Ac-CSHAVC-NH2) were prepared and compared to a linear HAV4 (Ac-SHAVAS-NH2) in modulating the intercellular junctions in vitro and in vivo [19]. […] An alanine scanning study was carried out to evaluate the role of each amino acid in HAV6 peptide, and the biological activity of each alanine mutant peptide was evaluated in lowering the TEER values of MDCK cell monolayers. Mutation of the Ser1 to Ala1 residue reduced the junction modulatory activity of the HAV6 mutant; ...

EC1 domain of E-cadherin [2] = test: SPR; EC1 protein immobilised on a streptavidin chip via the Streptag I sequence on its N-terminus; various peptide concentrations injected

- Kd (EC1 domain of E-cadherin [1]): 26.8 µM
Molecule: CC(=O)N[C@H]1CSSC[C@@H](C(N)=O)NC(=O)[C@H](C(C)C)NC(=O)[C@@H]2CCCN2C(=O)[C@@H]2CCCN2C(=O)[C@H]([C@@H](C)O)NC(=O)[C@H](CC(=O)O)NC1=O [ADTC5, Cyclo(1,7)Ac-CDTPPVC-NH2] (Ac-CDTPPVC-NH2; disulfide 1-7)

- Kd (EC1 domain of E-cadherin [1]): 0.114 µM
- binding affinity to EC1 domain of E-cadherin vs ADTC5, in words (EC1 domain of E-cadherin [1]): higher binding affinity
Molecule: CC(C)[C@@H]1NC(=O)[C@H](C)NC(=O)[C@H](Cc2c[nH]cn2)NC(=O)[C@H](CO)NC(=O)[C@H](C(C)C)NC(=O)[C@@H]2CCCN2C(=O)[C@@H]2CCCN2C(=O)[C@H]([C@@H](C)O)NC1=O [cyclic ADTHAV, Cyclo(1,8)TPPVSHAV] (cyclo(TPPVSHAV))
- BBB modulatory activity to deliver IgG mAb compared to cyclic HAVN2, in words (brains of C57BL/6 mice; 13 µmol/kg peptide, 15 min): significantly better than that of cyclic HAVN2
- amount of IgG mAb in the brain (brain deposition) (brains of C57BL/6 mice): 15.7 ± 0.8 pmol/g brain
- brain delivery of IgG mAb compared to control (IgG mAb alone), in words (brains of C57BL/6 mice; 15 min): significantly better than in the PBS control
- binding affinity to EC1 domain of E-cadherin vs ADTC5, in words (EC1 domain of E-cadherin [1]; listed as Cyclic ADTHAV): better binding affinity to the EC1 domain of E-cadherin than does ADTC5

Molecule: Ac-SHAVAS-NH2 [HAV4, earlier linear HAV peptide]
- junction modulatory activity of HAV6 analogues (alanine scan), in words (MDCK cell monolayers; lowering TEER of MDCK cell monolayers, ref [34]): enhanced modulatory activity of the peptide compared to HAV6

Molecule: Ac-TPPVSHAV-NH2 [linear ADTHAV]
- amount of IgG mAb in the brain (brain deposition) (brains of C57BL/6 mice): 11.8 ± 0.5 pmol/g brain
- brain delivery of IgG mAb compared to control (IgG mAb alone), in words (brains of C57BL/6 mice; 15 min): significantly better than in the PBS control

Molecule: Cyclo(1,5)SHAVS (head to tail) [HAVN2, N-to-C-termini cyclo-pentapeptide derived from HAV6]
- BBB modulatory activity / IgG mAb brain delivery compared to HAV6, in words (brains of C57BL/6 mice; 13 µmol/kg peptide, 15 min): significantly enhanced; also recorded: improvement in the BBB modulatory activity; also recorded: better BBB modulatory effects than their linear counterpart, HAV6
- BBB modulatory activity compared to HAVN1, in words (brains of C57BL/6 mice; 13 µmol/kg peptide, 15 min): removal of one serine residue did not influence the BBB modulatory activity of HAVN2 compared to HAVN1
- amount of IgG mAb in the brain (brain deposition) (brains of C57BL/6 mice): 8.8 ± 0.6 pmol/g brain
- brain delivery of IgG mAb compared to control (IgG mAb alone), in words (brains of C57BL/6 mice; 15 min): significantly enhanced

Molecule: Cyclo(1,6)SHAVSS (head to tail) [HAVN1, N-to-C-termini cyclo-hexapeptide derived from HAV6]
- BBB modulatory activity / IgG mAb brain delivery compared to HAV6, in words (brains of C57BL/6 mice; 13 µmol/kg peptide, 15 min): significantly enhanced; also recorded: improvement in the BBB modulatory activity; also recorded: better BBB modulatory effects than their linear counterpart, HAV6
- amount of IgG mAb in the brain (brain deposition) (brains of C57BL/6 mice): 8.6 ± 0.5 pmol/g brain
- brain delivery of IgG mAb compared to control (IgG mAb alone), in words (brains of C57BL/6 mice; 15 min): significantly enhanced

Molecule: cyclo(1,8)Ac-CSHAVASC-NH2 (disulfide) [cHAVc1, earlier cyclic HAV peptide]
- junction modulatory activity in MDCK cell monolayers, in words (MDCK cell monolayers; compared to HAV4 (and cHAVc1), ref [19]): same junction modulatory activity as HAV4 peptide

- Kd (EC1 domain of E-cadherin [2]): 26.8 µM
B1: Cyclic ADTC5 (peptide)
peptide: Ac-CDTPPVC-NH2
modifications: disulfide 1-7
SMILES: CC(=O)N[C@H]1CSSC[C@@H](C(N)=O)NC(=O)[C@H](C(C)C)NC(=O)[C@@H]2CCCN2C(=O)[C@@H]2CCCN2C(=O)[C@H]([C@@H](C)O)NC(=O)[C@H](CC(=O)O)NC1=O

- Kd (EC1 domain of E-cadherin [2]): 0.114 µM
Molecule: TPPVSHAV (cyclo(1,8): N-to-C terminal peptide bond) [Cyclic ADTHAV]
